Laboratory results from patent US12441704B2, “Compounds active towards nuclear receptors” (NUEVOLUTION A/S, priority 2019, dated 2025).
Like-named read-outs stand apart in the source and are kept apart here.

Experiments:
[1] = system: Collagen-induced arthritis; test: Collagen-induced arthritis (CIA) study; assay type: in vivo; settings: 3 mpk p.o. b.i.d.; DBA/1J mice
Experimental: Collagen-induced arthritis is an animal model of rheumatoid arthritis used to evaluate the efficacy of test compounds. CIA was induced at Washington Biotechnology Inc. (Baltimore) in male DBA/1J mice (Jackson Laboratories) by subcutaneous injection at the base of the tail with 50 μl of a bovine collagen/complete Freund's adjuvant emulsion. After 21 days, the mice were further boosted by a further subcutaneous injection of 50 μl of a collagen/incomplete Freund's adjuvant emulsion. For treatment, compound or vehicle (2% DMSO, 10% HP-β-CD in MilliQ water) was given orally twice daily at various doses selected from 3, 10, 30 mg/kg, beginning at the day of CIA induction (Prophylactic setting), or after disease initiation (at day 27, therapeutic setting). Treatment lasted until day 41, and the animals were scored three times weekly. Each paw was scored and the sum of all four scores was recorded as the Arthritic Index (AI). The maximum possible AI was 16. 0=no visible effects of arthritis; 1=edema and/or erythema of one digit; 2=edema and/or erythema of 2 joints; 3=edema and/or erythema of more than 2 joints; 4=severe arthritis of the entire paw and digits including limb deformation and ankylosis of the joint. The Arthritis Index for each treatment can be expressed as the mean score for each treatment group+/−S.E.M.

[2] = system: IL-17A secretion in activated PBMCs; test: IL-17A secretion in activated PBMCs; assay type: cell-based, human; settings: human PBMCs stimulated with CD3/CD28 Dynabeads for 48 h, absolute IC50
How it was run: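 Human PBMCs from healthy donors, 40,000 cells/well, were preincubated 30 min with compound in 10-point 5-fold dilutions (0.1% DMSO), then stimulated 48 h at 37° C with CD3/CD28 beads (1:1). Supernatant IL-17A was read by bead immunoassay on a flow cytometer. Inhibition was normalized to activated DMSO (top) and GNE09461 10 μM (basal).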

[3] = biological target: T1, RORγ ligand-binding domain fused to Gal4 (Homo sapiens, UniProt P51449); test: RORγ Reporter Assay (Gal4); assay type: cell-based
T1 construct: Gal4 (galactose-responsive transcription factor); expressed in transfected cells; host or cells: HEK293
T1 sequence (P51449 269-508 limits assumed): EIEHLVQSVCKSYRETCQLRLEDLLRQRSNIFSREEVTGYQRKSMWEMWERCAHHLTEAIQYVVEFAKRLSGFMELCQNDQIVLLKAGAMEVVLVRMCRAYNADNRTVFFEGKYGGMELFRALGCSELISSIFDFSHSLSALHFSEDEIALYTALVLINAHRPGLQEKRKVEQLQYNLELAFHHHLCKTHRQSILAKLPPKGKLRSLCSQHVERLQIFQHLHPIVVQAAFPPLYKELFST
How it was run: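 Percent inhibition was derived from luciferase RLU versus vehicle mean after 24 h compound incubation (37 °C, 0.1% DMSO). The cells were HEK293, transiently co-expressing a Gal4–RORγ ligand-binding-domain fusion plus a UAS-driven luciferase gene.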

[4] = system: plasma IL-17A; test: In vivo IL-17A induction in anti-CD3 model in mice; settings: oral gavage twice daily day 0 to day 3, C57BL/6JRj mice
Experimental: Male C57BL/6JRj mice (7 week old) were purchased from Janvier Labs and housed at the animal facilities of Almirall throughout the study. Animals were allowed to condition for 5 days in their new environment at 22° C.±2° C., 55%±10% relative humidity and 12 h: 12 h light:dark cycles. Animals were housed in polycarbonate cages, with free access to water and non-purified stock diet (2014 Teklad Global 14% Protein Rodent Maintenance Diet, Envigo) during the full course of the studies. Care of animals was undertaken in compliance with the European Committee Directive 2010/63/EU, and the Catalan and Spanish law. All procedures were performed according to the ARRIVE guidelines (Animal Research: Reporting of In Vivo Experiments) and with approval from the Animal Experimentation Ethical Committee of Almirall (Barcelona, Spain).
Mice were injected intraperitoneally with 7.5 μg of anti-CD3e (Clone 145-2C11 from Pharmingen BD) at 0 h (day 0) and […] (day 3) time-points. The non-induced-group were injected with PBS instead of anti-CD3e. At study completion (4 h after anti-CD3e injection), animals were anaesthetized with isofluorane (Baxter) and 0.5-1 mL blood samples were drawn by intracardiac puncture in heparinized tubes. Plasma samples were stored at −80° C. for subsequent analysis.
Test compounds were freshly suspended in sterile 0.5% methylcellulose 0.1% tween-80 solution (10 mL/kg body weight). […]
Plasma levels of IL-17A were measured by ELISA (R&D Systems) according to the manufacturer's instruction. Results were calculated as the percentage of reduction of plasma IL-17A versus the difference between non-induced and anti-CD3e induced groups through the formula: inhibition=100*[1−[(x−mean non-induced)/(mean control vehicle−mean non-induced)]]. The IL-17A inhibition for each treatment can be expressed as the mean for each treatment group±S.E.M. Statistical analysis of data were conducted with one-way ANOVA followed by Dunnett's multiple comparisons test when appropriate. […]

[5] = biological target: T1, RORγ ligand-binding domain fused to Gal4; settings: cited from earlier work
[6] = comparison compounds of WO2016020288, source marked WO2016020288
[7] = RORγ Gal4 assay EC50, Examples in <100 range, Examples of WO2016020288, based on % inhibition at 0.1 and/or 1 uM (Table 5 c, footnote 4)
[8] = RORγ Gal4 assay EC50, Examples in <500 range, Examples of WO2016020288, based on % inhibition at 0.1 and/or 1 uM (Table 5 c, footnote 5)
[9] = comparison examples of WO2016020288 (footnote 1)
[10] = HEK293 cells co-transfected with RORγ LBD-Gal4 and luciferase reporter, 24 h incubation, absolute EC50, read-out: EC50

| Structure (SMILES) | EC50 [3, 7] | EC50 [3, 8] | EC50 [3, 10] | IC50 ([2]; Homo sapiens, PBMC, 48 h) | other results |
| --- | --- | --- | --- | --- | --- |
| NC(=O)CN1CC[C@@H](CNc2ncnc(N(Cc3ccc(C(F)(F)F)cc3)C3CC3)c2F)[C@H](O)C1 (single isomer, unassigned) [Example A7-01-1] |  |  |  | 0.0063 µM | reduction in AI (Arthritic Index) as compared to the anti-IL-17A antibody [1]: 74%; EC50 ([3]; compounds of the present disclosure, source: Table 2 herein, read-out: Gal4 assay EC50): < 0.1 µM; Inhibition of IL-17A (%) at 3 mg/kg [4]: 80% |
| CCN(Cc1ccc(C(F)(F)F)cc1)c1ncnc(NC[C@]2(O)CCN(CC(N)=O)C[C@H]2O)c1F (single isomer, unassigned) [Example D5-01-1-1] |  |  |  |  | IC50 [2]: 0.0019 µM; Inhibition of IL-17A (%) at 3 mg/kg [4]: 92% |
| CCN(Cc1ccc(C(F)(F)F)cc1F)c1ncnc(NC[C@]2(O)CCN(CC(N)=O)C[C@H]2O)c1F (single isomer, unassigned) [Example D5-03-1-1] |  |  |  | 0.003 µM | Inhibition of IL-17A (%) at 3 mg/kg [4]: 93% |
| NC(=O)Cc1ccc(CNc2ncnc(N(Cc3ccc(C(F)(F)F)cc3)C3CC3)c2F)cc1 [Example A2, reference compound] | < 0.1 µM | < 0.5 µM |  |  | EC50 [5, 6]: < 0.1 µM |
| CC(c1ccc(C(F)(F)F)cc1)N(c1ncnc(NCc2ccc(CC(N)=O)cc2)c1F)C1CC1 (stereo not drawn) [Example A3, reference compound] | < 0.1 µM | < 0.5 µM |  |  | EC50 [5, 9]: < 0.1 µM |
| CS(=O)(=O)N1CCC(CNc2ncnc(N(Cc3ccc(C(F)(F)F)cc3)C3CC3)c2F)CC1 [Example A7, reference compound] | < 0.1 µM | < 0.5 µM |  |  | EC50 [5, 6]: < 0.1 µM |
| NC(=O)CN1CCC(CO)(CNc2ncnc(N(Cc3ccc(C(F)(F)F)cc3)C3CC3)c2F)CC1 [Example A7-51, 2-(4-(((6-(cyclopropyl(4-(trifluoromethyl)benzyl)amino)-5-fluoropyrimidin-4-yl)amino)methyl)-4-(hydroxymethyl)piperidin-1-yl)acetamide] |  |  | 0.0024 µM | 0.0073 µM |  |
| NC(=O)CN1CCC(CO)(CNc2ncnc(N(Cc3ccc(C(F)(F)F)cn3)C3CC3)c2F)CC1 [Example A7-52, 2-(4-(((6-(cyclopropyl((5-(trifluoromethyl)pyridin-2-yl)methyl)amino)-5-fluoropyrimidin-4-yl)amino)methyl)-4-(hydroxymethyl)piperidin-1-yl)acetamide] |  |  | 0.042 µM | 0.13 µM | EC50 ([3]; compounds of the present disclosure, value from Table 2 herein, read-out: Gal4 assay EC50): < 0.1 µM |
| NC(=O)C(CO)N1CCC(O)(CNc2ncnc(N(Cc3ccc(C(F)(F)F)cc3)C3CC3)c2F)CC1 (stereo not drawn) [Example A7-68, 2-(4-(((6-(cyclopropyl(4-(trifluoromethyl)benzyl)amino)-5-fluoropyrimidin-4-yl)amino)methyl)-4-hydroxypiperidin-1-yl)-3-hydroxypropanamide] |  |  | 0.02 µM | 0.021 µM |  |
| NC(=O)C(CO)N1CCC(CO)(CNc2ncnc(N(Cc3ccc(C(F)(F)F)cc3)C3CC3)c2F)CC1 (stereo not drawn) [Example A7-70, 2-(4-(((6-(cyclopropyl(4-(trifluoromethyl)benzyl)amino)-5-fluoropyrimidin-4-yl)amino)methyl)-4-(hydroxymethyl)piperidin-1-yl)-3-hydroxypropanamide] |  |  | 0.0088 µM | 0.012 µM |  |
| NC(=O)CN1CCC(CNc2ncnc(N(Cc3ccc(C(F)(F)F)cc3)C3CC3)c2F)(c2ncon2)CC1 [Example A7-81, 2-(4-(((6-(Cyclopropyl(4-(trifluoromethyl)benzyl)amino)-5-fluoropyrimidin-4-yl)amino)methyl)-4-(1,2,4-oxadiazol-3-yl)piperidin-1-yl)acetamide] |  |  | 0.0053 µM | 0.12 µM |  |
| NC(=O)CN1CCC(CNc2ncnc(N(Cc3ccc(C(F)(F)F)cc3)C3CC3)c2F)(c2nnco2)CC1 [Example A7-82, 2-(4-(((6-(Cyclopropyl(4-(trifluoromethyl)benzyl)amino)-5-fluoropyrimidin-4-yl)amino)methyl)-4-(1,3,4-oxadiazol-2-yl)piperidin-1-yl)acetamide] |  |  | 0.0081 µM | 0.15 µM |  |
| NC(=O)CN1CCC(CNc2ncnc(N(Cc3ccc(C(F)(F)F)cc3)C3CC3)c2F)(c2cnn[nH]2)CC1 [Example A7-85, 2-(4-(((6-(Cyclopropyl(4-(trifluoromethyl)benzyl)amino)-5-fluoropyrimidin-4-yl)amino)methyl)-4-(1H-1,2,3-triazol-5-yl)piperidin-1-yl)acetamide] |  |  | 0.0079 µM | 0.12 µM |  |
| CC(=O)N1CCC(CNc2ncnc(N(Cc3ccc(C(F)(F)F)cc3)C3CC3)c2F)CC1 [Example A11, reference compound] |  | < 0.5 µM |  |  | EC50 [5, 6]: < 0.1 µM |

Second part, led by results:

| EC50 [3, 7] | EC50 [3, 8] | EC50 [3, 10] | Structure (SMILES) | IC50 ([2]; Homo sapiens, PBMC, 48 h) | other results |
| --- | --- | --- | --- | --- | --- |
| < 0.1 µM | < 0.5 µM |  | OC1(CNc2ncnc(N(Cc3ccc(C(F)(F)F)cc3)C3CC3)c2F)CCC(F)(F)CC1 [Example A44, reference compound] |  | EC50 [5, 6]: < 0.1 µM |
| < 0.1 µM | < 0.5 µM |  | NC(=O)Cc1ccc(CNc2ncnc(N(Cc3ccc(C(F)(F)F)nc3)C3CC3)c2F)cc1 [Example A83, reference compound] |  | EC50 [5, 9]: < 0.1 µM |
| < 0.1 µM | < 0.5 µM |  | NC(=O)Cc1ccc(CNc2ncnc(N(Cc3ccc(C(F)(F)F)cn3)C3CC3)c2F)cc1 [Example A85, reference compound] |  | EC50 [5, 9]: < 0.1 µM |
|  | < 0.5 µM |  | NC(=O)CC1CC(CNc2ncnc(N(Cc3ccc(C(F)(F)F)cc3)C3CC3)c2F)C1 (stereo not drawn) [Example A95, reference compound] |  | EC50 [5, 6]: < 0.5 µM |
| < 0.1 µM | < 0.5 µM |  | NC(=O)Cc1ccc(CNc2ncnc(N(Cc3cnc(C(F)(F)F)nc3)C3CC3)c2F)cc1 [Example A98, reference compound] |  | EC50 [5, 9]: < 0.1 µM |
| < 0.1 µM | < 0.5 µM |  | NC(=O)Cc1ccc(CNc2ncnc(N(Cc3cccc(OC(F)(F)F)c3)C3CC3)c2F)cc1 [Example A102, reference compound] |  | EC50 [5, 9]: < 0.1 µM |
| < 0.1 µM | < 0.5 µM |  | CN(Cc1cccc(OC(F)(F)F)c1)c1ncnc(NCc2ccc(CC(N)=O)cc2)c1F [Example A128, reference compound] |  | EC50 [5, 9]: < 0.1 µM |
